Reference: PubChem BioAssay (NCI)
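Tested at 5 concentrations; 48 h exposure; 96-well plates; endpoints linearly interpolated, else capped at highest concentration. Definition used: TGI = concentration required for complete inhibition of growth.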

Columns and labels:
Test in all cases: growth of human tumour cells (NCI), 48 h
LXFL 529 NSCLC = system: LXFL 529 NSCLC
KM20L2 colon = system: KM20L2 colon
DMS 273 small cell lung = system: DMS 273 small cell lung
DMS 114 small cell lung = system: DMS 114 small cell lung
XF 498 CNS = system: XF 498 CNS
RXF-631 renal = system: RXF-631 renal

Row | SMILES | TGI (LXFL 529 NSCLC) [µM] | TGI (KM20L2 colon) [µM] | TGI (DMS 273 small cell lung) [µM] | TGI (DMS 114 small cell lung) [µM] | TGI (XF 498 CNS) [µM] | TGI (RXF-631 renal) [µM]
1 | O=C([O-])c1ccccc1Nc1ccccc1C(=O)[O-].[OH3+].[Zn+2] | 44.7 | > 100 | 29.2 | 37.4 | 57.3 | –
2 | COC(=O)CC(C(C(=O)OCc1ccccc1)C(C)O)N1C(=O)OCC1c1ccccc1 (stereo unspecified) | > 100 | > 100 | > 100 | > 100 | > 100 | –
3 | O=CC1=CCCN(CCc2c[nH]c3ccccc23)C1 | 45.8 | 122 | 94.4 | 146 | – | 102
4 | CC1=C(C(=O)O)N2C(=O)[C@@H](NC(=O)C(c3ccccc3)N3CSC(=S)N(C(C)C)C3)C2SC1 (stereo partly specified) | > 100 | > 100 | > 100 | – | > 100 | –
5 | COC1CC(O[C@H]2CC[C@@]3(C)C(=CCC4(O)C3CCC35C(=O)OC6(C)O[C@@]43CCC65)C2)OC(C)C1O (stereo partly specified) | > 100 | > 100 | > 100 | > 100 | > 100 | –
6 | OC(c1cc2ccccc2[nH]1)C(O)(c1cc2ccccc2[nH]1)c1cc2ccccc2[nH]1 (stereo unspecified) | 40.2 | > 245 | 48.8 | 29 | – | 58.3
7 | N=C1c2ccccc2C(=O)c2c(NCCNCCO)ccc(O)c21 | 27.8 | 22 | 18.9 | 15.1 | – | –
8 | CC(C)(Oc1ccc2c(=O)cc(-c3ccc(Cl)cc3)oc2c1)C(=O)Nc1c(Cl)cccc1Cl | > 100 | > 100 | > 100 | > 100 | > 100 | –
9 | CC1=C(O)C(=O)C2C(=O)C1C(C)C2c1ccccc1 (stereo unspecified) | > 100 | – | > 100 | – | > 100 | –
